Assays:
[1] = tested on: T and NK cells; test: Continuous dosing of patients with selective SHIP1 inhibitor; type: in vivo; details: administration periods of 3, 4, 5, 6, 7 or more days
Method: An effective dose of selective SHIP1 inhibitor (e.g. K223) is administered by any appropriate means (e.g., orally, intravenously, intraperitoneally) to a patient for administration periods of 3, 4, 5, 6, 7 or more days.

[2] = target: T1, SHIP1 (Homo sapiens, UniProt Q92835); test: Malachite Green phosphatase assay; type: biochemical; details: at 1 nm and 500 μM
T1 sequence (Q92835 1-1189): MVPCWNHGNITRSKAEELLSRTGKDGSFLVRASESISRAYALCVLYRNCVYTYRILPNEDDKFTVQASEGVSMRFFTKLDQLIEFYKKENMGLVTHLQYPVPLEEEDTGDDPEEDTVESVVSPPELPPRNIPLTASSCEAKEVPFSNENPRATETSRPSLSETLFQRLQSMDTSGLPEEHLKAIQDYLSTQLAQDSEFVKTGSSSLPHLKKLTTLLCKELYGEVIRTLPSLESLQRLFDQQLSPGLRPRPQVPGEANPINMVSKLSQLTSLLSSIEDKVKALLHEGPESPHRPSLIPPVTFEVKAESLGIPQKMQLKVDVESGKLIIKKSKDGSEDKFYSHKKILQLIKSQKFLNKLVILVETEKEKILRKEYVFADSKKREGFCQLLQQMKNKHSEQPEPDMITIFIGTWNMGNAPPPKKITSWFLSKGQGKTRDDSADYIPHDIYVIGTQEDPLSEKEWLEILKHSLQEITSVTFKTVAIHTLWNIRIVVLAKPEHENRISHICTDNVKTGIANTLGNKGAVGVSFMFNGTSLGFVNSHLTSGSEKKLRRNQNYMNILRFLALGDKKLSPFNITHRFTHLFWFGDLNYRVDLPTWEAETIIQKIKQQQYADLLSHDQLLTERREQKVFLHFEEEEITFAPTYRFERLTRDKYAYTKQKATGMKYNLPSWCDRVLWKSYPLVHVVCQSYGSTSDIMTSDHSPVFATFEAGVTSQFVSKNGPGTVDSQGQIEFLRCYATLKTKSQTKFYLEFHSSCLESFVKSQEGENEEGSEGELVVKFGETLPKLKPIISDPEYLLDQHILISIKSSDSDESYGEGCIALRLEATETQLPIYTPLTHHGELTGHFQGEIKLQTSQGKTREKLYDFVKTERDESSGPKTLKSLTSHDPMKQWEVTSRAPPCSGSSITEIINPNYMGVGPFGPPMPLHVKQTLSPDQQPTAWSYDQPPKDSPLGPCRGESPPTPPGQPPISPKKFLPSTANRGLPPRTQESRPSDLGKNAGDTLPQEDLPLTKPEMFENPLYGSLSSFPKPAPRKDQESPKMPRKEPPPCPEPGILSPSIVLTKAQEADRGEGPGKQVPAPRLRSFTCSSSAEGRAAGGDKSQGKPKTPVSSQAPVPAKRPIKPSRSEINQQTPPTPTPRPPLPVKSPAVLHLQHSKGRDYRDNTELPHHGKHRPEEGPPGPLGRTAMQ
Description: FIGS. 2A-2C show the results of a SHIP1 malachite phosphatase assay. […] This predicts that the sulfonic acid is acting as a phosphate mimic, binding in active site where the 5′-phosphate of PIP3 binds.
K223 is an analog of EDANS, with the corresponding sulfonyl chloride of K223 being used as a donor for developing FRET-based nucleic acid probes and protease substrates. The docking pose of K223 with the model of the SHIP1 active site predicted that the sulfonic acid acts as a phosphate mimic, binding in the active site where the 5′-phosphate of PIP3 binds (FIG. 2B). The origin of the SHIP1 selectivity for K223 was not clear, however the nonpolar naphthalene core rests near K682 in the model of SHIP1, and this residue is a more polar arginine in SHIP2.

Structure (SMILES): NCCNc1cccc2cccc(S(=O)(=O)O)c12 [Compound K223, 8-((2-aminoethyl)amino)naphthalene-1-sulfonic acid]
- responsiveness of activated T and NK cells [1]: hyporesponsiveness
- inhibition of SHIP1 [2]: potent and selective inhibition of SHIP1

Reference: patent US11952328B2, “Selective ship inhibitors for treating disease” (THE RESEARCH FOUNDATION FOR THE STATE UNIVERSITY OF NEW YORK, priority 2018, dated 2024)
